Results: patent US11549123B2, “Plant EPSP synthases and methods of use” (PIONEER HI-BRED INTERNATIONAL, INC., priority 2015, dated 2023)

Assays:
Type in all cases: biochemical
[1] = target: T1, Zea mays EPSPS, wild-type, SEQ ID NO:1 (Zea mays, UniProt O24566); experiment: EPSPS reaction rate with or without 10 uM glyphosate, native maize; conditions: pH 7; read-out: Reaction rate with 10 μM glyph, % no glyph; note: 50 µM PEP and S3P
T1 construct: expressed in E. coli, purified

[2] = target: Zea mays EPSPS variant 123-C1 (A2R, A4W, K84R, L98C, G102A, I208L, K243E, E391P, D402G), SEQ ID NO:6 (Zea mays, UniProt O24566, A1R/A3W/D401G/E390P/G101A/I207L/K242E/K83R/L97C); experiment: EPSPS substrate saturation kinetics, 123-C1
Chain of Zea mays EPSPS variant 123-C1 (A2R, A4W, K84R, L98C, G102A, I208L, K243E, E391P, D402G), SEQ ID NO:6 (O24566 entry or part of it A1R/A3W/K83R/L97C/G101A/I207L/K242E/E390P/D401G): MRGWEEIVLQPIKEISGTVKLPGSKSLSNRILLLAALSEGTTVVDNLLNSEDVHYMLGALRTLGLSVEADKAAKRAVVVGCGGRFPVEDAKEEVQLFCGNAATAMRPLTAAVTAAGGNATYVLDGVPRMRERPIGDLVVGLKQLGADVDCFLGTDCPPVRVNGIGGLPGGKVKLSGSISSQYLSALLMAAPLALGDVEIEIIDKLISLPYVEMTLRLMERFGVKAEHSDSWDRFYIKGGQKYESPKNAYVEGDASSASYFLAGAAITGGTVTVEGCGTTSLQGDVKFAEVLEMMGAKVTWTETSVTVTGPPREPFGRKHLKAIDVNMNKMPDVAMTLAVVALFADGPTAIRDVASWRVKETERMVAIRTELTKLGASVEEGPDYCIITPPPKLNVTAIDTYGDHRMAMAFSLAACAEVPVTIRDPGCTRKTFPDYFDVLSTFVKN
Procedure: (§1) EPSPS activity was determined by quantifying the phosphate generated from the EPSPS reaction. Release of inorganic phosphate was coupled to reaction with 2-amino-6-mercapto-7-methylpurine ribonucleoside, catalyzed by purine-nucleoside phosphorylase (M R Webb, Proc. Natl. Acad. Sci. 89:4884-4887, 1992). The absorbance change that occurs was monitored at 360 nm, where the extinction is 11,200 M^−1 cm^−1, with a Spectramax plate reader (Molecular Devices). To determine kinetic parameters, the varied substrate was present at seven concentrations (the eighth being the blank, containing no substrate) ranging from 4 to 400 uM and the unvaried substrate present at saturation. […] Reactions were monitored with a Spectramax plate reader. […] KI was then calculated from the following form of the Michaelis-Menten equation for competitive inhibition: KI=KM[I]/(KM app−KM) KM approximates the dissociation constant of the enzyme-substrate complex while kcat is the rate of conversion of substrate to product when the substrate concentration is saturating. kcat/KM is a widely accepted parameter for catalytic efficiency when substrate concentration is low (˜KM). […] The parameter kcat/KM×KI is used to quantify both catalytic efficiency and insensitivity and thus the overall fitness of the enzyme. […]

[3] = target: T2, Zea mays EPSPS variant Zm-H6 (868-H6) with R61Y (H6-R61Y) (Zea mays, UniProt O24566, A1R/A3W/A415G/A71Q/D401G/E301S/E390G/G101A/I207L/K83R/L97C/R60Y/T278A/T360S/T440Q/V437R); experiment: Substrate saturation kinetic analysis with glyphosate, H6-R61Y
T2 construct: 868-H6 plus R61Y; E. coli BL21(DE3), Ni-NTA purified
T2 sequence (O24566 with tags, fused parts or gaps A1R/A3W/R60Y/A71Q/K83R/L97C/G101A/I207L/T278A/E301S/T360S/E390G/D401G/A415G/V437R/T440Q): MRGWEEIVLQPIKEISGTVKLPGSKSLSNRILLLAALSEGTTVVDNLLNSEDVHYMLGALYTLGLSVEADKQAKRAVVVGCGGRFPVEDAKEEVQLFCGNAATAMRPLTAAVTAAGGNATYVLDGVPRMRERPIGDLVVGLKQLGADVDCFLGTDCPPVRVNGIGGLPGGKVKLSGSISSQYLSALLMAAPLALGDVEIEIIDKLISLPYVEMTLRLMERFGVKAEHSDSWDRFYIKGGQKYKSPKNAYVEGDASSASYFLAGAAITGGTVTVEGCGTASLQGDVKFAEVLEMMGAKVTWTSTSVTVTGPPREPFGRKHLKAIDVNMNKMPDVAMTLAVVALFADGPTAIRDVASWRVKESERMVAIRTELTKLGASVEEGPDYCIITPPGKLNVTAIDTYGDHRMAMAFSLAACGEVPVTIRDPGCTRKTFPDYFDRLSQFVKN

[4] = target: Zea mays EPSPS variant WT-FS-B (103I 107S 278G 338S) (Zea mays, UniProt O24566, A337S/P106S/T102I/T277G); experiment: EPSPS substrate saturation kinetics, WT-FS-B
Chain of Zea mays EPSPS variant WT-FS-B (103I 107S 278G 338S) (O24566 entry or part of it T102I/P106S/T277G/A337S): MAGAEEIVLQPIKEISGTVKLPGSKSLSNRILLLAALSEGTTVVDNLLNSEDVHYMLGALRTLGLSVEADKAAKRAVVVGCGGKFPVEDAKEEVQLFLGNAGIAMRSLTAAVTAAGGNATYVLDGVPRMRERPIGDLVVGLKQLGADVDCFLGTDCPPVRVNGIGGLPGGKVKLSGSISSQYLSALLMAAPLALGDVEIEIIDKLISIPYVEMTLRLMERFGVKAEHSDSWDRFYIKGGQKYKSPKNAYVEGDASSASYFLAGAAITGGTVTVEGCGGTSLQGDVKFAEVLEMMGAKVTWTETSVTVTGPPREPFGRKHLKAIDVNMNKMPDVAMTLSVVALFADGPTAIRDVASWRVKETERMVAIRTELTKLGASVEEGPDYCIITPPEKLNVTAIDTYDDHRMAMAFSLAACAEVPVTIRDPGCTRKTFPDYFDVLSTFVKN
Procedure: as §1

[5] = PEP as substrate, glyphosate as inhibitor

T1 sequence (O24566 entry or part of it): as the sequence (O24566 entry or part of it T102I/P106S/T277G/A337S) above, with I103T, S107P, G278T, S338A counted along it

In the case of O=C(O)CNCP(=O)(O)O [glyphosate, N-phosphonomethylglycine], the activity at 10 µM [1] is reported as 9.49%, the Ki [2] is reported as 559 µM and the “(kcat/KM)*KI” value [2, 5] is reported as 10100. The Ki [3] was 309 µM, the “(kcat/KM)*KI” value ([3]; substrate saturation, H6-R61Y) was 1640 and the Ki [4] was 552 µM. For the same molecule, the “(kcat/KM)*KI” value [4, 5] was 1971.
